Measurements from ChEMBL document CHEMBL5154863, “Design and synthesis of quinolinium-based derivatives targeting FtsZ for antibacterial evaluation and mechanistic study” (Eur J Med Chem, 2022).
Activity calls are given as the source filed them. No cut-off for these calls is given here.

What was measured:
[1] = test system: Staphylococcus aureus; experiment: Antibacterial activity against methicillin-resistant Staphylococcus aureus ATCC 43300 assessed as inhibition of bacterial growth incubated for 20 to 24 hrs by broth micro dilution method; format: functional; settings: time 20-24 hrs
[2] = test system: Pseudomonas aeruginosa; experiment: Antibacterial activity against […] Pseudomonas aeruginosa ATCC 27853 assessed as inhibition of bacterial growth incubated for 20 to 24 hrs by broth micro dilution method; format: functional; settings: time 20-24 hrs
[3] = target: T1, Cell division protein FtsZ (Staphylococcus aureus, UniProt P0A031); experiment: Binding affinity to Staphylococcus aureus FtsZ assessed as dissociation constant by isothermal titration calorimetry
T1 sequence (P0A031 whole entry): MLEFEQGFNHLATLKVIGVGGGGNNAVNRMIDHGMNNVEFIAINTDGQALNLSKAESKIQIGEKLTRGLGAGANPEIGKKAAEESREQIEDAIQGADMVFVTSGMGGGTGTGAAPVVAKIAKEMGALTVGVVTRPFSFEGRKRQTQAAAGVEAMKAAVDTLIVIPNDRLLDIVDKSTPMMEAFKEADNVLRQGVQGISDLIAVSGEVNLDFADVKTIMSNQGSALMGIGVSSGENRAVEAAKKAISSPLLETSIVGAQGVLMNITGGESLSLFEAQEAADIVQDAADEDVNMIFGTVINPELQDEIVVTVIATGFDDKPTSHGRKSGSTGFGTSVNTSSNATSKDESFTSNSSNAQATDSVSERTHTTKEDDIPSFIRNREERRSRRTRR

[4] = test system: Staphylococcus aureus; experiment: Antibacterial activity against methicillin-resistant Staphylococcus aureus ATCC BAA41 assessed as fractional inhibitory concentration index incubated for 24 hrs by checker board assay; format: functional
[5] = test system: Staphylococcus aureus; experiment: Synergistic antibacterial activity against methicillin-resistant Staphylococcus aureus ATCC BAA41 assessed as inhibition of bacterial growth incubated for 24 hrs in presence of methicillin by checker board assay; format: functional
[6] = Ratio of MBC for bactericidal activity against Staphylococcus aureus ATCC 43300 to MIC for antibacterial activity against Staphylococcus aureus ATCC 43300; format: functional
[7] = target: T2, Cell division protein FtsZ (Staphylococcus aureus) (UniProt P0A031); experiment: Induction of Staphylococcus aureus FtsZ polymerization expressed in Escherichia coli BL21 (DE3) assessed as increase in absorbance at 2 to 8 ug/ml in presence of GTP by microplate reader method; settings: dose 2-8 µg/ml, DDE = dose-dependent effect
T2 sequence (whole entry): T1 sequence (P0A031 whole entry)

[8] = test system: Staphylococcus aureus; experiment: Induction of morphological changes in Staphylococcus aureus ATCC 29213 assessed as enlargement of cell size at 0.5 times MIC for 4 hrs by microscopic analysis; format: functional, organism-based
[9] = test system: Enterococcus faecalis; experiment: Antibacterial activity against Enterococcus faecalis ATCC 29212 assessed as inhibition of bacterial growth incubated for 20 to 24 hrs by broth micro dilution method; format: functional; settings: time 20-24 hrs
[10] = Ratio of MBC for bactericidal activity against Staphylococcus aureus ATCC 29213 to MIC for antibacterial activity against Staphylococcus aureus ATCC 29213; format: functional
[11] = test system: Erythrocyte; experiment: Hemolytic activity in Kunming mouse erythrocyte at 1 to 64 ug/ml incubated for 1 hr; format: toxicity, cell-based; settings: dose 1-64 µg/ml
[12] = test system: Klebsiella pneumoniae; experiment: Antibacterial activity against NDM-1 expressing Klebsiella pneumoniae ATCC BAA 2470 assessed as inhibition of bacterial growth incubated for 20 to 24 hrs by broth micro dilution method; format: functional; settings: time 20-24 hrs
[13] = test system: Bacillus subtilis; experiment: Induction of drug resistance against Bacillus subtilis CMCC (B) 63501 measured after 16 passages; format: functional; settings: dose <= 64.0 µg/ml, time 30.0 min
[14] = test system: Escherichia coli; experiment: Antibacterial activity against NDM-1 expressing Escherichia coli ATCC BAA2469 assessed as inhibition of bacterial growth incubated for 20 to 24 hrs by broth micro dilution method; format: functional; settings: time 20-24 hrs
[15] = target: T2, Cell division protein FtsZ (Staphylococcus aureus); experiment: Binding affinity to Staphylococcus aureus FtsZ assessed as equilibrium binding constant by isothermal titration calorimetry
[16] = test system: Enterococcus faecium; experiment: Antibacterial activity against Enterococcus faecium ATCC 49624 assessed as inhibition of bacterial growth incubated for 20 to 24 hrs by broth micro dilution method; format: functional; settings: time 20-24 hrs
[17] = test system: Enterococcus faecium; experiment: Antibacterial activity against vancomycin-resistant Enterococcus faecium clinical isolate assessed as inhibition of bacterial growth incubated for 20 to 24 hrs by broth micro dilution method; format: functional; settings: time 20-24 hrs
[18] = target: T2, Cell division protein FtsZ (Staphylococcus aureus); experiment: Binding affinity to Staphylococcus aureus FtsZ assessed as increase in alpha helix structure at 8 ug/ml incubated for 30 mins by circular dichroism method (reference value: 30.5 %); settings: dose 8.0 µg/ml
[19] = test system: Staphylococcus aureus; experiment: Antibacterial activity against vancomycin-intermediate Staphylococcus aureus Mu50 assessed as inhibition of bacterial growth incubated for 20 to 24 hrs by broth micro dilution method; format: functional; settings: time 20-24 hrs
[20] = test system: Bacillus subtilis; experiment: Antibacterial activity against Bacillus subtilis CMCC (B) 63501 assessed as inhibition of bacterial growth incubated for 20 to 24 hrs by broth micro dilution method; format: functional; settings: time 20-24 hrs
[21] = Ratio of MBC for bactericidal activity against Enterococcus faecium ATCC 700221 to MIC for antibacterial activity against Enterococcus faecium ATCC 700221; format: functional
[22] = test system: Staphylococcus aureus; experiment: Antibacterial activity against Staphylococcus aureus ATCC 29213 infected in HK-2 cells assessed as inhibition of bacterial growth incubated for 20 to 24 hrs by broth micro dilution method; format: functional; settings: time 20-24 hrs
[23] = Ratio of MBC for bactericidal activity against Bacillus subtilis CMCC (B) 63501 to MIC for antibacterial activity against Bacillus subtilis CMCC (B) 63501; format: functional
[24] = target: T2, Cell division protein FtsZ (Staphylococcus aureus); experiment: Binding affinity to Staphylococcus aureus FtsZ assessed as decrease in other structure at 8 ug/ml for 30 mins by circular dichroism method (reference value: 34.5 %); design: scale not given: the % may be the effect or the level left; settings: dose 8.0 µg/ml
[25] = target: T2, Cell division protein FtsZ (Staphylococcus aureus); experiment: Binding affinity to Staphylococcus aureus FtsZ assessed as decrease in beta turn structure at 8 ug/ml incubated for 30 mins by circular dichroism method (reference value: 17.4 %); design: scale not given: the % may be the effect or the level left; settings: dose 8.0 µg/ml
[26] = test system: Staphylococcus aureus; experiment: Bactericidal activity against Staphylococcus aureus ATCC 43300 assessed as inhibition of bacterial growth incubated for 24 hrs by resazurin dye based microtiter plate assay; format: functional
[27] = test system: Staphylococcus aureus; experiment: Antibacterial activity against Staphylococcus aureus ATCC 29213 assessed as inhibition of bacterial growth incubated for 20 to 24 hrs by broth micro dilution method; format: functional; settings: time 20-24 hrs
[28] = Cytotoxicity against human HK-2 cells incubated for 48 hrs by MTT assay; format: toxicity, cell-based
[29] = test system: Staphylococcus aureus; experiment: Antibacterial activity against Staphylococcus aureus ATCC 29213 assessed reduction in viable bacterial count upto 4 times MIC measured after 8 hrs by time-kill kinetics assay; format: functional
[30] = test system: Staphylococcus aureus; experiment: Antibacterial activity against Staphylococcus aureus ATCC 29213 infected in L929 cells assessed as inhibition of bacterial growth incubated for 20 to 24 hrs by broth micro dilution method; format: functional; settings: time 20-24 hrs
[31] = test system: Escherichia coli; experiment: Antibacterial activity against Escherichia coli ATCC 8739 assessed as inhibition of bacterial growth incubated for 20 to 24 hrs by broth micro dilution method; format: functional; settings: time 20-24 hrs
[32] = test system: Enterococcus faecium; experiment: Bactericidal activity against Enterococcus faecium ATCC 700221 assessed as inhibition of bacterial growth incubated for 24 hrs by resazurin dye based microtiter plate assay; format: functional
[33] = Cytotoxicity against mouse L929 cells incubated for 48 hrs by MTT assay; format: toxicity, cell-based
[34] = test system: Escherichia coli; experiment: Antibacterial activity against Escherichia coli ATCC 25922 assessed as inhibition of bacterial growth incubated for 20 to 24 hrs by broth micro dilution method; format: functional; settings: time 20-24 hrs

CC1CCN(c2cc(/C=C/c3ccc(N(C)C)cc3)[n+](C)c3ccccc23)CC1.[I-]
MIC [1]: 1 µg/mL
MIC [2]: > 64 µg/mL
Kd [3]: 3.84 µM
fractional inhibitory concentration index (FICI) [4]: 0.3125
MIC [5]: 2 µg/mL
Ratio [6]: >4
Activity [7]: Dde
Activity [8]: Active
MIC [9]: 2 µg/mL
Ratio [10]: >4
IC5 [11]: 64 µg/mL
MIC [12]: > 64 µg/mL
Activity [13]: Active
MIC [14]: 64 µg/mL
Kb [15]: 4.41 10^5/M
MIC [16]: 8 µg/mL
MIC [17]: 4 µg/mL
Activity [18]: 41%
MIC [19]: 1 µg/mL
MIC [20]: 4 µg/mL
Ratio [21]: 4
MIC [22]: 1 µg/mL
Ratio [23]: 1
Activity [24]: 15.1%
Activity [25]: 15.5%
MBC [26]: 8 µg/mL
MIC [27]: 1 µg/mL
IC50 at 48 h [28]: 9.42 µg/mL
Activity [29]: 1000 CFU/ml
MIC [30]: 1 µg/mL
MIC [31]: 64 µg/mL
MBC [32]: 4 µg/mL
IC50 at 48 h [33]: 12.8 µg/mL
MIC [34]: 8 µg/mL
